This is an account of results in patent US9573930B2 (Quanticel Pharmaceuticals, Inc., priority 2014, dated 2017).

Molecules are shown by their SMILES.

The target in the experiment is full-length human LSD1 (Homo sapiens (Human), UniProt O60341). The experiment in a line: In vitro enzyme inhibition assay LSD-1 (TR-FRET). It is filed as biochemical. As to conditions: H3K4me1-biotin peptide. As to the method:
This assay determines the ability of a test compound to inhibit LSD1 demethylase activity.
The enzymatic assay of LSD1 activity is based on Time Resolved-Fluorescence Resonance Energy Transfer (TR-FRET) detection.
The ability of the compounds disclosed herein to inhibit LSD1 activity was quantified and the respective IC50 value was determined.
By IC50 is commonly meant the concentration that inhibits the measured activity by half. The low end stands for greater potency, the high end for weaker potency. `COc1ccc(-c2c(-c3ccc(C#N)c(F)c3)nc(N(C)C[C@@H]3CCNC3)n(C)c2=O)cc1` (stereo in doubt) [Example 56, 2-fluoro-4-[5-(4-methoxy-phenyl)-1-methyl-2-(methyl-pyrrolidin-3-ylmethyl-amino)-6-oxo-1,6-dihydro-pyrimidin-4-yl]-benzonitrile] displayed an IC50 of less than 100 nM.
The same measure for `COc1ccc(-c2c(-c3ccc(C#N)cc3)nc(N3CCC(N)CC3)n(C)c2=O)cn1` [Example 3, 4-[2-(4-amino-piperidin-1-yl)-5-(6-methoxy-pyridin-3-yl)-1-methyl-6-oxo-1,6-dihydro-pyrimidin-4-yl]-benzonitrile]: less than 100 nM; for `Cc1ccc(-c2c(-c3ccc(C#N)cc3)nc(N3CCC(N)CC3)n(C)c2=O)cn1` [Example 4, 4-[2-(4-amino-piperidin-1-yl)-1-methyl-5-(6-methyl-pyridin-3-yl)-6-oxo-1,6-dihydro-pyrimidin-4-yl]-benzonitrile]: less than 100 nM.
Take `COc1ccc(-c2c(-c3ccc(C#N)c(F)c3)nc(N3CCC(N)CC3)n(C)c2=O)cc1` [Example 6, 4-[2-(4-amino-piperidin-1-yl)-5-(4-methoxy-phenyl)-1-methyl-6-oxo-1,6-dihydro-pyrimidin-4-yl]-2-fluoro-benzonitrile]: the IC50 was less than 100 nM.
The compound `COc1ccc(-c2c(-c3ccc(C#N)c(F)c3)nc(N3CCC(N)CC3)n(C)c2=O)cn1` [Example 8, 4-[2-(4-amino-piperidin-1-yl)-5-(6-methoxy-pyridin-3-yl)-1-methyl-6-oxo-1,6-dihydro-pyrimidin-4-yl]-2-fluoro-benzonitrile] gave an IC50 of less than 100 nM.
`Cc1ccc(-c2c(-c3ccc(C#N)c(F)c3)nc(N3CCC(N)CC3)n(C)c2=O)cn1` [Example 9]: the IC50 was less than 100 nM.
`CCc1ccc(-c2c(-c3ccc(C#N)cc3)nc(N3CCC(N)CC3)n(C)c2=O)cn1` [Example 10, 4-[2-(4-amino-piperidin-1-yl)-5-(6-ethyl-pyridin-3-yl)-1-methyl-6-oxo-1,6-dihydro-pyrimidin-4-yl]-benzonitrile] returned an IC50 of less than 100 nM.
Compound `CNC1CCN(c2nc(-c3ccc(C#N)c(F)c3)c(-c3ccc(OC)cc3)c(=O)n2C)CC1` [Example 11, 2-fluoro-4-[5-(4-methoxy-phenyl)-1-methyl-2-(4-methylamino-piperidin-1-yl)-6-oxo-1,6-dihydro-pyrimidin-4-yl]-benzonitrile] registered an IC50 of less than 100 nM.
The value for `CNC1CCN(c2nc(-c3ccc(C#N)c(F)c3)c(-c3ccc(OC)c(F)c3)c(=O)n2C)CC1` [Example 12, 2-fluoro-4-[5-(3-fluoro-4-methoxy-phenyl)-1-methyl-2-(4-methylamino-piperidin-1-yl)-6-oxo-1,6-dihydro-pyrimidin-4-yl]-benzonitrile] was less than 100 nM; that for `CCn1c(N2CCC(N)CC2)nc(-c2ccc(C#N)c(F)c2)cc1=O` [Example 13, 4-[2-(4-amino-piperidin-1-yl)-1-ethyl-6-oxo-1,6-dihydro-pyrimidin-4-yl]-2-fluoro-benzonitrile] was 100 to 1000 nM.
In turn, `Cn1c(N2CCC(N)CC2)nc(-c2ccc(C#N)c(F)c2)c(C#CC2CCCC2)c1=O` [Example 14, 4-[2-(4-amino-piperidin-1-yl)-5-cyclopentylethynyl-1-methyl-6-oxo-1,6-dihydro-pyrimidin-4-yl]-2-fluoro-benzonitrile] yielded a concentration for half-maximal inhibition (IC50) of less than 100 nM.
Compound `COc1ccc(-c2c(-c3ccc(C#N)c(F)c3)nc(N3CCC(N)CC3)n(CC(=O)O)c2=O)cc1` [Example 15, [2-(4-amino-piperidin-1-yl)-4-(4-cyano-3-fluoro-phenyl)-5-(4-methoxy-phenyl)-6-oxo-6H-pyrimidin-1-yl]-acetic acid] returned a half-maximal inhibitory concentration (IC50) of less than 100 nM.
`COc1ccc(-c2c(-c3ccc(C#N)c(F)c3)nc(N3CCC(N)CC3)n(CC(N)=O)c2=O)cc1` [Example 16, 2-[2-(4-amino-piperidin-1-yl)-4-(4-cyano-3-fluoro-phenyl)-5-(4-methoxy-phenyl)-6-oxo-6H-pyrimidin-1-yl]-acetamide] came in with an IC50 of less than 100 nM.
Compound `N#Cc1ccc(-c2cc(=O)n(CCCO)c(N3CCC(N)CC3)n2)cc1F` [Example 17, 4-[2-(4-amino-piperidin-1-yl)-1-(3-hydroxy-propyl)-6-oxo-1,6-dihydro-pyrimidin-4-yl]-2-fluoro-benzonitrile] returned an IC50 of 100 to 1000 nM.
`Cn1c(N2CCC(N)CC2)nc(-c2ccc(C#N)c(F)c2)c(-c2ccc3occc3c2)c1=O` [Example 18, 4-[2-(4-amino-piperidin-1-yl)-5-benzofuran-5-yl-1-methyl-6-oxo-1,6-dihydro-pyrimidin-4-yl]-2-fluoro-benzonitrile] came in with an IC50 of less than 100 nM.
The same measure for `Cn1c(N2CCC(N)CC2)nc(-c2ccc(C#N)c(F)c2)c(C#N)c1=O` [Example 19, 2-(4-amino-piperidin-1-yl)-4-(4-cyano-3-fluoro-phenyl)-1-methyl-6-oxo-1,6-dihydro-pyrimidine-5-carbonitrile]: less than 100 nM; for `CNC1CCN(c2nc(-c3ccc(C#N)c(F)c3)c(-c3ccc(C)nc3)c(=O)n2C)CC1` [Example 21, 2-fluoro-4-[1-methyl-2-(4-methylamino-piperidin-1-yl)-5-(6-methyl-pyridin-3-yl)-6-oxo-1,6-dihydro-pyrimidin-4-yl]-benzonitrile]: less than 100 nM.
The same measure for `COc1ccc(-c2c(-c3ccc(C#N)c(F)c3)nc(N3CCC4(CCNC4)CC3)n(C)c2=O)cc1F` [Example 22, 4-[2-(2,8-diaza-spiro[4.5]dec-8-yl)-5-(3-fluoro-4-methoxy-phenyl)-1-methyl-6-oxo-1,6-dihydro-pyrimidin-4-yl]-2-fluoro-benzonitrile]: less than 100 nM.
As to `COc1ccc(-c2c(-c3ccc(C#N)c(F)c3)nc(N3CCC[C@@H](N)C3)n(C)c2=O)cc1F` [Example 25, 4-[2-((3R)-3-aminopiperidyl)-5-(3-fluoro-4-methoxyphenyl)-1-methyl-6-oxohydropyrimidin-4-yl]-2-fluorobenzenecarbonitrile], the IC50 was less than 100 nM.
The value for `COc1ncc(-c2c(-c3ccc(C#N)c(F)c3)nc(N3CCC(N)CC3)n(C)c2=O)cc1F` [Example 26, 4-[2-(4-aminopiperidyl)-5-(5-fluoro-6-methoxy(3-5,6-dihydropyridyl))-1-methyl-6-oxohydropyrimidin-4-yl]-2-fluorobenzenecarbonitrile] was less than 100 nM.
`COc1ccc(-c2c(-c3ccc(C#N)c(F)c3)nc(N3CC[C@@H](N)C3)n(C)c2=O)cc1F` [Example 27, 4-[2-((3R)-3-aminopyrrolidinyl)-5-(3-fluoro-4-methoxyphenyl)-1-methyl-6-oxohydropyrimidin-4-yl]-2-fluorobenzenecarbonitrile] had a concentration for half-maximal inhibition (IC50) of less than 100 nM.
In turn, `COc1ccc(-c2c(-c3ccc(C#N)c(F)c3)nc(N3CCC[C@H](N)C3)n(C)c2=O)cc1F` [Example 28, 4-[2-((3S)-3-amino-piperidin-1-yl)-5-(3-fluoro-4-methoxy-phenyl)-1-methyl-6-oxo-1,6-dihydro-pyrimidin-4-yl]-2-fluoro-benzonitrile] registered an IC50 of less than 100 nM.
`COc1ccc(-c2c(-c3ccc(C#N)c(F)c3)nc(N3CC[C@H](N)C3)n(C)c2=O)cc1F` [Example 29, 4-[2-((3S)-3-amino-pyrrolidin-1-yl)-5-(3-fluoro-4-methoxy-phenyl)-1-methyl-6-oxo-1,6-dihydro-pyrimidin-4-yl]-2-fluoro-benzonitrile] had an IC50 of less than 100 nM.
The compound `COc1ccc(-c2c(-c3ccc(C#N)c(F)c3)nc(N3CCC[C@@H](N)C3)n(C)c2=O)cc1` [Example 30, 4-[2-((3R)-3-aminopiperidyl)-5-(4-methoxyphenyl)-1-methyl-6-oxohydropyrimidin-4-yl]-2-fluorobenzenecarbonitrile] had a concentration for half-maximal inhibition (IC50) of less than 100 nM.
`COc1ccc(-c2c(-c3ccc(C#N)c(F)c3)nc(N3CCC[C@H](N)C3)n(C)c2=O)cc1` [Example 31, 4-[2-((3S)-3-amino-piperidin-1-yl)-5-(4-methoxy-phenyl)-1-methyl-6-oxo-1,6-dihydro-pyrimidin-4-yl]-2-fluoro-benzonitrile]: the IC50 is less than 100 nM.
As for `COc1ccc(-c2c(-c3ccc(C#N)c(F)c3)nc(N3CCC(C)(N)CC3)n(C)c2=O)cc1F` [Example 32, 4-[2-(4-amino-4-methyl-piperidin-1-yl)-5-(3-fluoro-4-methoxy-phenyl)-1-methyl-6-oxo-1,6-dihydro-pyrimidin-4-yl]-2-fluoro-benzonitrile], the concentration for half-maximal inhibition (IC50) is less than 100 nM.
The compound `Cn1c(N2CCC(N)CC2)nc(-c2ccc(C#N)c(F)c2)c(-c2cnn(CC(F)(F)F)c2)c1=O` [Example 34, 4-{2-(4-amino-piperidin-1-yl)-1-methyl-6-oxo-5-[1-(2,2,2-trifluoro-ethyl)-1H-pyrazol-4-yl]-1,6-dihydro-pyrimidin-4-yl}-2-fluoro-benzonitrile] had an IC50 of less than 100 nM.
In turn, `Cn1c(N2CCC(N)CC2)nc(-c2ccc(C#N)cc2)c(-c2cnn(CC(F)(F)F)c2)c1=O` [Example 36, 4-{2-(4-amino-piperidin-1-yl)-1-methyl-6-oxo-5-[1-(2,2,2-trifluoro-ethyl)-1H-pyrazol-4-yl]-1,6-dihydro-pyrimidin-4-yl}-benzonitrile] had an IC50 of less than 100 nM.
`Cn1cc2cc(-c3c(-c4ccc(C#N)c(F)c4)nc(N4CCC(N)CC4)n(C)c3=O)ccc2n1` [Example 37, 4-[2-(4-aminopiperidyl)-1-methyl-5-(2-methyl(2H-indazol-5-yl))-6-oxohydropyrimidin-4-yl]-2-fluorobenzenecarbonitrile]: the IC50 was less than 100 nM.
`COc1c(F)cc(-c2c(-c3ccc(C#N)cc3)nc(N3CCC(N)CC3)n(C)c2=O)cc1F` [Example 38, 4-[2-(4-aminopiperidyl)-5-(3,5-difluoro-4-methoxyphenyl)-1-methyl-6-oxohydropyrimidin-4-yl]benzenecarbonitrile] returned an IC50 of less than 100 nM.
Turning to `Cn1c(N2CCC(N)CC2)nc(-c2ccc(C#N)c(F)c2)c(-c2ccc(C(=O)O)cc2)c1=O` [Example 39, 4-[2-(4-aminopiperidyl)-6-(4-cyano-3-fluorophenyl)-3-methyl-4-oxo-3-hydropyrimidin-5-yl]benzoic acid], the IC50 was in the range of 100 to 1000 nM.
